Patent US11744798B2, “Injectable pharmaceutical formulation” (UPM-Kymmene Corporation, priority 2019, dated 2023)
Values after ≈ are worked out from the molar mass of the structure shown.

Legend:
[1] = Cumulative release study of CPF from NFC depots with solvents; assay type: physicochemical
Method: Cumulative release study aiming to increase the release rate of CPF and receive close to 100% cumulative result for NFC-formulations within 7 days. Following detailed tasks were performed: • Two solvents, DMSO (Dimethyl sulfoxide) and NMP (N-methyl-2-pyrrolidone), in addition to H2O were used to enhance release of CPF • 6% anionic and 1.5% native NFC were studied • Study included formulation and short in vitro dissolution studies for NFC-API depots to follow cumulative release
Cumulative release study aiming to increase cumulative result for NFC-formulations was performed with CPF, as it had clearly lower cumulative release results in previous experiments compared to MLX. 6% anionic and 1.5% native NFC were studied. Two solvents, DMSO (dimethyl sulfoxide) and NMP (N-methyl-2-pyrrolidone), in addition to H2O were used to enhance the release of CPF. The study included formulation and short in vitro dissolution studies for NFC-API depots to follow cumulative release (FIG. 7). Depots contained 50% of solvent and 50% of NFC.
However, the increase was most apparent within the first hours and first day of study, which after the release reverted to the level of pure NFC formulations.

[2] = water at 25° C.; cited from earlier work

Compound	effect on release of CPF ([1]; 50% DMSO in NFC depot)	effect on release of CPF ([1]; 50% NMP in NFC depot)	solubility in water [2] [µg/mL]
CC(C(=O)O)c1ccc2c(c1)[nH]c1ccc(Cl)cc12 (stereo not drawn) [Carprofen]	increased the release	increased the release	–
Cc1cnc(NC(=O)C2=C(O)c3ccccc3S(=O)(=O)N2C)s1 [Meloxicam]	–	–	7.15 (≈ 20.3 µM)
